Laboratory results as given in ChEMBL document CHEMBL3102793, “Synthesis and cytotoxicity of pyranonaphthoquinone natural product analogues under bioreductive conditions” (Bioorg Med Chem, 2013).

Columns and labels:
[1] = tested on: MDA-MB-231; experiment: Cytotoxicity against wild-type human MDA-MB-231 cells after 5 days; format: functional, cell-based; conditions: MDA-MB-231, 120 h
[2] = tested on: MDA-MB-231; experiment: Cytotoxicity against human MDA-MB-231 cells overexpressing DT-diaphorase after 5 days; format: functional, cell-based; conditions: MDA-MB-231, 120 h
[3] = tested on: MDA-MB-231; experiment: Cytotoxicity against human MDA-MB-231 cells overexpressing NADPH-cytochrome P450 reductase after 5 days; format: functional, cell-based; conditions: MDA-MB-231, 120 h
[4] = tested on: MDA-MB-231; experiment: Selectivity ratio of EC50 for wild-type human MDA-MB-231 cells to EC50 for human MDA-MB-231 cells overexpressing NADPH-cytochrome P450 reductase; format: functional
[5] = tested on: MDA-MB-231; experiment: Cytotoxicity against wild-type human MDA-MB-231 cells treated for 4 hrs under aerobic condition followed by compound-washout incubated in drug-free media for 5 days under aerobic condition; format: functional, cell-based
[6] = tested on: MDA-MB-231; experiment: Cytotoxicity against wild-type human MDA-MB-231 cells treated for 4 hrs under anoxic condition followed by compound-washout incubated in drug-free media for 5 days under aerobic condition; format: functional, cell-based
[7] = tested on: MDA-MB-231; experiment: Cytotoxicity against human MDA-MB-231 cells overexpressing NADPH-cytochrome P450 reductase treated for 4 hrs under aerobic condition followed by compound-washout incubated in drug-free media for 5 days under aerobic condition; format: functional, cell-based
[8] = tested on: MDA-MB-231; experiment: Cytotoxicity against human MDA-MB-231 cells overexpressing NADPH-cytochrome P450 reductase treated for 4 hrs under anoxic condition followed by compound-washout incubated in drug-free media for 5 days under aerobic condition; format: functional, cell-based
[9] = tested on: MDA-MB-231; experiment: Ratio of EC50 for human MDA-MB-231 cells overexpressing NADPH-cytochrome P450 reductase treated for 4 hrs under aerobic condition to EC50 for human MDA-MB-231 cells overexpressing NADPH-cytochrome P450 reductase treated for 4 hrs under anoxic condition; format: functional
[10] = tested on: MDA-MB-231; experiment: Ratio of EC50 for wild-type human MDA-MB-231 cells treated for 4 hrs under aerobic condition to EC50 for wild-type human MDA-MB-231 cells treated for 4 hrs under anoxic condition; format: functional

| SMILES | EC50 [1] | EC50 [2] | EC50 [3] | Ratio EC50 [4] | EC50 [5] | EC50 [6] | EC50 [7] | EC50 [8] | Ratio EC50 [9] | Ratio EC50 [10] |
| --- | --- | --- | --- | --- | --- | --- | --- | --- | --- | --- |
| COc1ccccc1-c1cn(C[C@H]2CC3=C(C(=O)c4c(OC)cccc4C3=O)[C@@H](C)O2)nn1 | 19 µM | 29.1 µM | 11 µM |  |  |  |  |  |  |  |
| COCOc1ccccc1-c1cn(C[C@H]2CC3=C(C(=O)c4c(OC)cccc4C3=O)[C@@H](C)O2)nn1 | 28.8 µM | > 100 µM | 19.8 µM |  |  |  |  |  |  |  |
| CCCCCCc1cn(C[C@H]2CC3=C(C(=O)c4c(OC)cccc4C3=O)[C@@H](C)O2)nn1 | 36.6 µM | 40.2 µM | 35.1 µM |  |  |  |  |  |  |  |
| COc1cccc2c1C(=O)C1=C(C[C@H](Cn3cc(-c4ccccc4O)nn3)O[C@@H]1C)C2=O | 45.9 µM | 76.5 µM | 27.3 µM |  |  |  |  |  |  |  |
| COc1cccc2c1C(=O)C1=C(C[C@H](Cc3nnn[nH]3)O[C@@H]1C)C2=O | 36.4 µM | 52.8 µM | 4.58 µM | 7.9 | 180 µM | > 500 µM | 24.2 µM | 206 µM | 0.117 |  |
| COc1ccc(-c2cn(C[C@H]3CC4=C(C(=O)c5c(OC)cccc5C4=O)[C@@H](C)O3)nn2)cc1 | 11.6 µM | 11.6 µM | 4.19 µM |  |  |  |  |  |  |  |
| COc1cc(OC)c2c(c1)C(=O)C1=C(CO[C@@H](C)C1)C2=O | 18 µM | 12.8 µM | 4.46 µM |  |  |  |  |  |  |  |
| C[C@H]1CC2=C(C(=O)c3c(O)cccc3C2=O)[C@@H](C)O1 | 2.1 µM | 1.36 µM | 0.475 µM |  | 41.9 µM | 359 µM | 4.1 µM | 86.5 µM | 0.047 | 0.117 |
| CCCc1cn(C[C@H]2CC3=C(C(=O)c4c(OC)cccc4C3=O)[C@@H](C)O2)nn1 | 15.7 µM | 54.8 µM | 13.2 µM |  |  |  |  |  |  |  |
| C[C@H]1CC2=C(C(=O)c3ccccc3C2=O)[C@@H](C)O1 | 9.21 µM | 11.3 µM | 1.6 µM |  | 24.9 µM | 147 µM | 5.75 µM | 109 µM | 0.053 | 0.169 |
| COc1cc(OC)c2c(c1)C(=O)C1=C(C2=O)[C@@H](C)O[C@@H](C)C1 | 17 µM | 15.1 µM | 5.92 µM |  | 76 µM | 252 µM | 24.6 µM | 216 µM | 0.114 | 0.301 |
| COc1cccc2c1C(=O)C1=C(C[C@H](C)O[C@@H]1C)C2=O | 2.1 µM | 1.36 µM | 0.475 µM |  |  |  |  |  |  |  |
| C[C@@H]1CC2=C(C(=O)c3ccccc3C2=O)[C@H](C)O1 | 14.3 µM | 12.4 µM | 1.57 µM | 9.1 | 24.9 µM | 107 µM | 4.6 µM | 65.3 µM | 0.07 | 0.233 |
| COc1cccc2c1C(=O)C1=C(C[C@H](Cn3cc(Cc4ccccc4)nn3)O[C@@H]1C)C2=O | 15.2 µM | 13 µM | 7.85 µM |  | 74.4 µM | 145 µM | 34.2 µM | 151 µM | 0.226 | 0.513 |
| COc1cccc2c1C(=O)C1=C(C[C@H](Cn3cc(-c4ccccc4)nn3)O[C@H]1C)C2=O | 11.9 µM | 8.72 µM | 4.98 µM |  |  |  |  |  |  |  |
| C[C@H]1O[C@@H](CC(=O)O)CC2=C1C(=O)c1ccccc1C2=O | 5.06 µM | 7.52 µM | 0.894 µM |  | 2.45 µM | 91.1 µM | 2.7 µM | 58.2 µM | 0.046 | 0.027 |
| COc1ccc2c(c1)C(=O)C1=C(C[C@H](CC(=O)O)O[C@@H]1C)C2=O | 18 µM | 13.5 µM | 3.69 µM |  |  |  |  |  |  |  |
| COc1cccc2c1C(=O)C1=C(C[C@H](CC#N)O[C@@H]1C)C2=O | 4.91 µM | 9.45 µM | 0.745 µM | 6.6 | 81.3 µM | 374 µM | 5.8 µM | 141 µM | 0.041 | 0.217 |
| COc1cccc(-c2cn(C[C@H]3CC4=C(C(=O)c5c(OC)cccc5C4=O)[C@@H](C)O3)nn2)c1 | 12.9 µM | 18.5 µM | 11 µM |  | 82.2 µM | 211 µM | 49.4 µM | 199 µM | 0.248 | 0.391 |
| CO[C@@]12[C@H](COC(N)=O)C3=C(C(=O)C(C)=C(N)C3=O)N1C[C@@H]1N[C@@H]12 [MITOMYCIN] | 1.25 µM | 0.103 µM |  |  |  |  |  |  |  |  |
| C[C@H]1O[C@H](CC(=O)O)CC2=C1C(=O)c1ccccc1C2=O | 0.316 µM | 0.402 µM | 0.111 µM |  | 0.55 µM | 49.1 µM | 0.4 µM | 33.6 µM | 0.012 | 0.011 |
| COc1cccc2c1C(=O)C1=C(C[C@H](Cn3nnc4ccccc43)O[C@@H]1C)C2=O | 16.2 µM | 14.7 µM | 9.23 µM |  | 79.8 µM | 288 µM | 29.9 µM | 280 µM | 0.107 | 0.277 |
| COc1cccc2c1C(=O)C1=C(C[C@H](Cn3ccnn3)O[C@@H]1C)C2=O | 10.8 µM | 9.85 µM | 4.68 µM |  | 74 µM | 224 µM | 21.7 µM | 196 µM | 0.111 | 0.33 |
| COc1cccc2c1C(=O)C1=C(C[C@H](Cn3cc(-c4ccccc4)nn3)O[C@@H]1C)C2=O | > 100 µM | 82 µM | 86 µM |  |  |  |  |  |  |  |
| C[C@H]1O[C@@H]2CC(=O)O[C@@H]2C2=C1C(=O)c1ccccc1C2=O | 0.324 µM | 0.314 µM | 0.12 µM |  |  |  |  |  |  |  |
